In one assay the target is T1, BRM (Homo sapiens, UniProt P51531).
T1 construct: made in house; host or cells: High Five insect cells
Kind of assay: ATPase catalytic activity of BRM, ADP-Glo in vitro biochemical assay. The settings on record: for IC50: ADP-Glo ATPase assay, 30 nM BRM, 400 μM ATP; for Ratio* (BRG1 IC50 (μM) divided by BRM IC50 (μM)): selectivity ratio BRG1 IC50 / BRM IC50. Put shortly: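 Recombinant BRM (30 nM) hydrolysed 400 μM ATP with 20 nM salmon sperm DNA in pH 8 Tris buffer containing 20 mM MgCl2, 50 mM NaCl, 0.1% Tween-20 and 1 mM DTT, 1 h at room temperature. ADP formed was quantified by ADP-Glo luminescence.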
For orientation: In ADP-Glo the light output rises with the ADP produced.

Another assay has as its target T2, BRG-1 (Homo sapiens, UniProt P51532).
T2 construct: made in house; host or cells: High Five insect cells
Kind of assay: ATPase catalytic activity of BRG-1, ADP-Glo in vitro biochemical assay. The settings on record: ADP-Glo ATPase assay, 30 nM BRG-1, 400 μM ATP; read-out: BRG1 IC50. As to the method: The ATPase catalytic activity of BRM or BRG-1 was measured by an in vitro biochemical assay using ADP-Glo™ (Promega, V9102). The ADP-Glo™ kinase assay is performed in two steps once the reaction is complete. The first step is to deplete any unconsumed ATP in the reaction. The second step is to convert the reaction product ADP to ATP, which will be utilized by the luciferase to generate luminesce and be detected by a luminescence reader, such as Envision.
Then, following addition of 5 μL of ADP-Glo™ Reagent provided in the kit, the reaction incubates at room temperature for 40 minutes. Then, 10 μL of Kinase Detection Reagent provided in the kit is added to convert ADP to ATP, and the reaction incubates at room temperature for 60 minutes. Finally, luminescence measurement is collected with a plate-reading luminometer, such as Envision.

Data on 27 compounds can be found in patent US20230416248A1, “COMPOUNDS AND USES THEREOF” (Foghorn Therapeutics Inc., priority 2020, published 2023).

T2 sequence (P51532 whole entry): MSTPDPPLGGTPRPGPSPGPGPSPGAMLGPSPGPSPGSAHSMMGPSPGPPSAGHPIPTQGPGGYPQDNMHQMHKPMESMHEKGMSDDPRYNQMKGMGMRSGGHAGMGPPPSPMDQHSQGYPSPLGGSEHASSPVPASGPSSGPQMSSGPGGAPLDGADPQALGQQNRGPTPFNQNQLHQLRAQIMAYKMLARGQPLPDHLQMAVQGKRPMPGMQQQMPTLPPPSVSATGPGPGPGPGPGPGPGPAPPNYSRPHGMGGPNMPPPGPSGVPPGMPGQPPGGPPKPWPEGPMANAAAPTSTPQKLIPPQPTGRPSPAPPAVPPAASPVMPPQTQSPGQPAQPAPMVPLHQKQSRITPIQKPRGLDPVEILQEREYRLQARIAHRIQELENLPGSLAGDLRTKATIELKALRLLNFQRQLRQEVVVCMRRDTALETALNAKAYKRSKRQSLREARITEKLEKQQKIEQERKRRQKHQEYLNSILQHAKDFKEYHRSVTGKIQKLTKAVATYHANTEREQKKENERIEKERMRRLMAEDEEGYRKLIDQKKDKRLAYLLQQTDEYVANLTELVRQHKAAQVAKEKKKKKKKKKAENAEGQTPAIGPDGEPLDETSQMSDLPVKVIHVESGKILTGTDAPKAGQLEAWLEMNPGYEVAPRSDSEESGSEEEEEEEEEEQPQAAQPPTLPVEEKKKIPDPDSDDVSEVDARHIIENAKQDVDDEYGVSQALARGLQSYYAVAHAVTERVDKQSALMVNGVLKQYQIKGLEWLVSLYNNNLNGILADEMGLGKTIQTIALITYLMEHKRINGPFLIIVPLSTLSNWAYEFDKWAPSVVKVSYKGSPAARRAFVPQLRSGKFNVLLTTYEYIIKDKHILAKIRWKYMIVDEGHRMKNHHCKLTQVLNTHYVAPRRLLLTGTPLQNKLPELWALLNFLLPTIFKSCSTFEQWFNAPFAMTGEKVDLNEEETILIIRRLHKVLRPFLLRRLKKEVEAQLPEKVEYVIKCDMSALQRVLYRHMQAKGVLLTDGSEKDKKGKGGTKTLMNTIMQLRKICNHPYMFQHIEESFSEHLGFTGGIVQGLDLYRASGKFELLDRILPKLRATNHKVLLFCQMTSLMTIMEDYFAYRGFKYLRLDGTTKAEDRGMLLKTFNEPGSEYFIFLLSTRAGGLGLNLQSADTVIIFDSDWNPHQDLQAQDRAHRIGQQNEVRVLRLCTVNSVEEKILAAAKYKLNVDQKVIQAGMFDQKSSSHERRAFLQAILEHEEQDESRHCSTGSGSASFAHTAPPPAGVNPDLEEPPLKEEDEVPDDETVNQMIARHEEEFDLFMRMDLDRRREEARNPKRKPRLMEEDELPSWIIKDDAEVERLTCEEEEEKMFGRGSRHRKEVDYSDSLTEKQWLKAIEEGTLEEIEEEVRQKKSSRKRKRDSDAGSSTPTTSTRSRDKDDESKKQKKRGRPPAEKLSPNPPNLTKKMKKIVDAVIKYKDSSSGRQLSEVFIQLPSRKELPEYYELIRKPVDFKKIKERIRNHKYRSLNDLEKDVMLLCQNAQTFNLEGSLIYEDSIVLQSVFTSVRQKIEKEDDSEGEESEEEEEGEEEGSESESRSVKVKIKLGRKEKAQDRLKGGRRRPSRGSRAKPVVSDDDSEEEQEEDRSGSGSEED
T1 sequence (P51531 whole entry): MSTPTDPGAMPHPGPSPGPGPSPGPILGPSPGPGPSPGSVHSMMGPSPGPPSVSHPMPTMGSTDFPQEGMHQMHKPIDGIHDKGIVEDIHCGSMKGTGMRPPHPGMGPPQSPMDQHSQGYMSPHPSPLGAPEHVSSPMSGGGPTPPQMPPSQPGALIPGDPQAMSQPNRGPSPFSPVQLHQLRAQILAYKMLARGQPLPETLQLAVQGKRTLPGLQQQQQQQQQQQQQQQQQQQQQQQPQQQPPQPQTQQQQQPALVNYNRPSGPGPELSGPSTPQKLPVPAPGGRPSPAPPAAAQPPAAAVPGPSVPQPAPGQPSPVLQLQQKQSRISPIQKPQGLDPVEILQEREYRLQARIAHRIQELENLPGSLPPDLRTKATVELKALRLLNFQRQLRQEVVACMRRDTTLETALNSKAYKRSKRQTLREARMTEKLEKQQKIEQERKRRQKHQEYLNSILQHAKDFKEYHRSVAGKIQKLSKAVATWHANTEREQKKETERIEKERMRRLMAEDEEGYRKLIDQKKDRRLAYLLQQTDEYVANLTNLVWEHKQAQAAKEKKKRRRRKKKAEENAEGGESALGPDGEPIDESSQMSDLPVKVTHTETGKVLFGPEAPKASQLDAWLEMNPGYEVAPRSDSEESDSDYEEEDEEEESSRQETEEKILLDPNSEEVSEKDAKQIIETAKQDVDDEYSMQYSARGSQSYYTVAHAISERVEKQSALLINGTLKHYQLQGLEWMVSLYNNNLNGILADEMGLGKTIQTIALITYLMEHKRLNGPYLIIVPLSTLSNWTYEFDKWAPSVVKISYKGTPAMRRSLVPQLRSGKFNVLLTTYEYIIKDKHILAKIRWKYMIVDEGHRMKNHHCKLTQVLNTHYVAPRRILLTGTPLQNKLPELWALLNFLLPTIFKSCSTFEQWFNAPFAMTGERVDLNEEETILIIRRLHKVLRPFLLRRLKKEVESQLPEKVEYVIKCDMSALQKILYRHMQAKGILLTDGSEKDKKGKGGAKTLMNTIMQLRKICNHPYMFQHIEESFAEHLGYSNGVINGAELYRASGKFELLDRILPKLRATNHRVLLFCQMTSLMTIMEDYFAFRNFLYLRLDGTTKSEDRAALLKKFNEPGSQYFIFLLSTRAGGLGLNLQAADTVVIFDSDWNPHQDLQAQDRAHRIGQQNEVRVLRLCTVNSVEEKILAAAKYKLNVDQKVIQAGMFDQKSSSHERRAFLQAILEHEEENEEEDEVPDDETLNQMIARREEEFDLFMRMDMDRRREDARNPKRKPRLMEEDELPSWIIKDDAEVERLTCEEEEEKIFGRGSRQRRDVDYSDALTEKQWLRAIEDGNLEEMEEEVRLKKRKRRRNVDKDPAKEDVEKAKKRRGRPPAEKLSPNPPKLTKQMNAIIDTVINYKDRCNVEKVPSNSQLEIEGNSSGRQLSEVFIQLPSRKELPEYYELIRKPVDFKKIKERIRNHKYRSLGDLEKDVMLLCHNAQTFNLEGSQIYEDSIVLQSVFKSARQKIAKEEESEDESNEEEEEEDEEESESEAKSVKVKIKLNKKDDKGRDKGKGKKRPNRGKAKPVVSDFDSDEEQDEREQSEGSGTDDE

As to `CCN(CCOC)c1cccc(-c2ccc3cnc(CNC(=O)c4ccc5c(c4)S(=O)(=O)CCOC5)cc3n2)n1` [Compound 73], the IC50 was 6.8 nM on BRM and 79.4 nM on BRG-1. Also, the “Ratio* (BRG1 IC50 (μM) divided by BRM IC50 (μM))” value at BRM amounted to 11.74.
For `O=C(NCc1cc2nc(-c3cccc(OC4CC(F)(F)C4)n3)ccc2cn1)c1ccc2c(c1)S(=O)(=O)CCOC2` [Compound 74], in that order: 122 nM, 1180 nM and 9.63.
In the case of `C[C@@H]1CN(c2cccc(-c3ccc4cnc(CNC(=O)c5cc(C6CC6)c6c(c5)S(=O)(=O)CCOC6)cc4n3)n2)C[C@H](C)O1` [Compound 75], the IC50 is 34.6 nM against BRM and 681 nM on BRG-1. In addition, on BRM, the “Ratio* (BRG1 IC50 (μM) divided by BRM IC50 (μM))” value amounted to 19.65.
For `CS(=O)(=O)c1cc(C(=O)NCc2cc3nc(-c4cccc(N5CC[C@H]6COC[C@H]6C5)n4)ccc3cn2)ccc1Cl` [Compound 76], in that order: 45.7 nM, 682 nM and 14.90.
For `CS(=O)(=O)c1cc(C(=O)NCc2cc3nc(-c4cccc(N5CC[C@@H]6COC[C@@H]6C5)n4)ccc3cn2)ccc1Cl` [Compound 77], in that order: 77.5 nM, 1070 nM and 13.85.
For `O=C(NCc1cc2nc(-c3cccc(N4CCCOCC4)n3)ccc2cn1)c1ccc2c(c1)S(=O)(=O)CCOC2` [Compound 78], in that order: 19 nM, 198 nM and 10.42.
Turning to `CN(C)[C@@H]1CCN(c2cccc(-c3ccc4cnc(CNC(=O)c5ccc6c(c5)S(=O)(=O)CCOC6)cc4n3)n2)CC1(F)F` [Compound 79], at BRM, the IC50 is 14.6 nM and the “Ratio* (BRG1 IC50 (μM) divided by BRM IC50 (μM))” value worked out at 7.89. The concentration for half-maximal inhibition (IC50) at BRG-1 turned out to be 116 nM.
For `COCCNc1cccc(-c2ccc3cnc(CNC(=O)c4ccc(C(F)F)c(S(C)(=O)=O)c4)cc3n2)n1` [Compound 80], in that order: 176 nM, 11.75 and 2070 nM.
For `CN(C)[C@H]1CCN(c2cccc(-c3ccc4cnc(CNC(=O)c5ccc6c(c5)S(=O)(=O)CCOC6)cc4n3)n2)CC1(F)F` [Compound 81], in that order: 275 nM, 6.33 and 1740 nM.
Consider `C[C@@H]1CN(c2cccc(-c3ccc4cnc(CNC(=O)c5cccc(S(C)(=O)=O)c5Cl)cc4n3)n2)C[C@H](C)O1` [Compound 82], for which, at BRM, 427 nM corresponded to half-maximal inhibition (IC50) and the “Ratio* (BRG1 IC50 (μM) divided by BRM IC50 (μM))” value stood at 11.71. Moreover, the IC50 on BRG-1 came out at 5000 nM.
For `CCN(CC)c1cccc(-c2ccc3cnc(CNC(=O)c4ccc5c(c4)S(=O)(=O)CCOC5)cc3n2)n1` [Compound 83], in that order: 8.1 nM, 16.64 and 135 nM.
For `COCCN1CCCc2c(-c3ccc4cnc(CNC(=O)c5ccc6c(c5)S(=O)(=O)CCOC6)cc4n3)cccc21` [Compound 84], in that order: 121 nM, 4.71 and 570 nM.
For the compound `Cc1cc2ccc(-c3ccc4cnc(CNC(=O)c5ccc6c(c5)S(=O)(=O)CCOC6)cc4n3)nc2n1C` [Compound 85], on BRM, the IC50 was 15.7 nM and the “Ratio* (BRG1 IC50 (μM) divided by BRM IC50 (μM))” value came out at 8.19. The IC50 on BRG-1 came out at 129 nM.
For `CS(=O)(=O)c1cc(C(=O)NCc2cc3nc(-c4cccc(N5CC[C@@H]6COCC6C5)n4)ccc3cn2)ccc1C(F)F` (stereo partly drawn) [Compound 86], in that order: 22.5 nM, 14.43 and 324 nM.
For `O=C(NCc1cc2nc(N3CCc4cnccc4C3)ccc2cn1)c1ccc2c(c1)S(=O)(=O)CCOC2` [Compound 87], in that order: 689 nM, 7.14 and 4920 nM.
For `COCCN1CCOc2c(-c3ccc4cnc(CNC(=O)c5ccc(Cl)c(S(C)(=O)=O)c5)cc4n3)cccc21` [Compound 88], in that order: 34.2 nM, 15.63 and 535 nM.
For the compound `COCCN1CCOc2c(-c3ccc4cnc(CNC(=O)c5ccc(C(F)F)c(S(C)(=O)=O)c5)cc4n3)cccc21` [Compound 89], the IC50 against BRM came out at 30.8 nM; at BRG-1, 648 nM. The “Ratio* (BRG1 IC50 (μM) divided by BRM IC50 (μM))” value on BRM came to 21.02.
For `O=C(NCc1cc2nc(N3CCCc4cnccc43)ccc2cn1)c1ccc2c(c1)S(=O)(=O)CCOC2` [Compound 90], in that order: 166 nM, 2140 nM and 12.89.
For `C[C@@H]1CN(c2cccc(-c3ccc4cnc(CNC(=O)c5ccc6c(c5)S(=O)(=O)CCCC6)cc4n3)n2)C[C@H](C)O1` [Compound 91], in that order: 4.8 nM, 17 nM and 3.52.
For `CO[C@@H]1CCCN(c2cccc(-c3ccc4cnc(CNC(=O)c5ccc6c(c5)S(=O)(=O)CCOC6)cc4n3)n2)C1` [Compound 92], in that order: 7.7 nM, 103 nM and 13.36.
For the compound `CO[C@H]1CCCN(c2cccc(-c3ccc4cnc(CNC(=O)c5ccc6c(c5)S(=O)(=O)CCOC6)cc4n3)n2)C1` [Compound 93], at BRM, the IC50 stood at 9.6 nM and the “Ratio* (BRG1 IC50 (μM) divided by BRM IC50 (μM))” value was 9.74. Further, the IC50 at BRG-1 was 93.6 nM.
Turning to `CN(c1cccc(-c2ccc3cnc(CNC(=O)c4ccc5c(c4)S(=O)(=O)CCOC5)cc3n2)n1)C1CC1` [Compound 94], on BRM, it took 32 nM to reach half-maximal inhibition (IC50) and the “Ratio* (BRG1 IC50 (μM) divided by BRM IC50 (μM))” value was found to be 9.02. Also, the half-inhibitory concentration (IC50) at BRG-1 is 288 nM.
For `CS(=O)(=O)c1cc(C(=O)NCc2cc3nc(-c4cccc(N5CC[C@H]6COC[C@H]6C5)n4)ccc3cn2)ccc1C(F)F` [Compound 95], in that order: 40.7 nM, 15.00 and 610 nM.
As for `CS(=O)(=O)c1cc(C(=O)NCc2cc3nc(-c4cccc(N5CC[C@@H]6COC[C@@H]6C5)n4)ccc3cn2)ccc1C(F)F` [Compound 96], the IC50 is 49.7 nM at BRM and 700 nM at BRG-1. Moreover, on BRM, the “Ratio* (BRG1 IC50 (μM) divided by BRM IC50 (μM))” value was 14.09.
For `COCCN(C)c1cccc(-c2ccc3cnc(CNC(=O)c4ccc(Cl)c(S(C)(=O)=O)c4)cc3n2)n1` [Compound 97], in that order: 20.3 nM, 324 nM and 15.97.
For `CS(=O)(=O)c1cc(C(=O)NCc2cc3nc(-c4cccc(N5CC[C@H]6OCC[C@@H]6C5)n4)ccc3cn2)ccc1Cl` [Compound 98], in that order: 33 nM, 257 nM and 7.80.
For `CS(=O)(=O)c1cc(C(=O)NCc2cc3nc(-c4cccc(N5CC[C@@H]6OCC[C@H]6C5)n4)ccc3cn2)ccc1Cl` [Compound 99], in that order: 78.7 nM, 884 nM and 11.24.

Usually IC50 stands for the concentration that inhibits the measured activity by half.
